Data published in patent US12661410B2, “Compounds for targeted degradation of RET” (C4 Therapeutics, Inc., priority 2020, dated 2026).
Numbering of substitutions follows the chain as printed. Read-outs that look alike come from different tables or passages of the source.

Key:
RET (658-1114) = biological target: T1, RET (658-1114) (Homo sapiens, UniProt P07949); experiment: HiBiT-Degradation, RET wild-type degradation assay (Nano-Glo HiBiT Lytic), 293T.144 cells; format: cell-based; details: for Emax / DC50: 6.0 hours; for Emax: read-out: 293T.144 RET (658-1114) 6.0 hours (Emax); for DC50: read-out: 293T.144 RET (658-1114) 6.0 hours (DC50)
T1 construct: 658-1114; expressed in transfected cells; host or cells: 293T.144 (293T cells, generated in-house)
T1 sequence (P07949 658-1114): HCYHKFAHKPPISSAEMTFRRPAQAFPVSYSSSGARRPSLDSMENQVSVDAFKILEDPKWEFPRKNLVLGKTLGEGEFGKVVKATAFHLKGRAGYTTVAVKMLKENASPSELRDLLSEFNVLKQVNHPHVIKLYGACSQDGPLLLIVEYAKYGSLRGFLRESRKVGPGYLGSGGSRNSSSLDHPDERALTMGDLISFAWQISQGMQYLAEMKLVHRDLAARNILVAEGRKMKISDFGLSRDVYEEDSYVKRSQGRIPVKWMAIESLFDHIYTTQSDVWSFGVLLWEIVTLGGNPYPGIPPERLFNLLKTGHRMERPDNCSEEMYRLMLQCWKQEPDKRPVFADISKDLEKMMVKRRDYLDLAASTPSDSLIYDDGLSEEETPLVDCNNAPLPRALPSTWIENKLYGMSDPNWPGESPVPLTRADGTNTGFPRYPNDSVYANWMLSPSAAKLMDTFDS
In short: (§1)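 6 h treatment, 293T.144 (WT) / 293T.165 (G810R) cells ectopically expressing HiBiT-fused RET KD; 11-pt half-log dilution, top 10 μM, n=2. Nano-Glo HiBiT lytic detection, luminescence. Output: DC50, Emax (% protein remaining).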

RET(KD: 658-1114 G810R) = biological target: T2, RET(KD: 658-1114 G810R) (Homo sapiens, UniProt P07949, G810R); experiment: HiBiT-Degradation, RET G810R degradation assay (Nano-Glo HiBiT Lytic), 293T.165 cells; format: cell-based; details: for Emax / DC50: 6.0 hours; for Emax: % remaining protein, read-out: 293T.165 RET(KD: 658-1114 G810R) 6.0 hours (Emax); for DC50: read-out: 293T.165 RET(KD: 658-1114 G810R) 6.0 hours (DC50)
T2 construct: 658-1114; expressed in transfected cells; host or cells: 293T.165 (293T cells, generated in-house)
T2 sequence (P07949 658-1114 G810R): T1 sequence (P07949 658-1114) with G153R
In short: as §1

[1] = half-maximal degradation concentration

`Cc1ccnc(C2CCN(c3ccc(-c4nc(-c5cnn(C6CCN(C(=O)CC7(O)CCN(c8ccc(NC9CCC(=O)NC9=O)cc8F)CC7)CC6)c5)cn5ncc(C#N)c45)cn3)CC2)n1` (centres unmarked) [Compound 115, 6-[1-[1-[2-[1-[4-[(2,6-dioxo-3-piperidyl)amino]-2-fluoro-phenyl]-4-hydroxy-4-piperidyl]acetyl]-4-piperidyl]pyrazol-4-yl]-4-[6-[4-(4-methylpyrimidin-2-yl)-1-piperidyl]-3-pyridyl]pyrazolo[1,5-a]pyrazine-3-carbonitrile] was tested, and the “293T.144 RET (658-1114) 6.0 hours (IP) [nM]” value (“293T.144 RET” below) (RET (658-1114)) was “++++ (<50 nM = ++++)”, the Emax (RET (658-1114); % remaining protein) was under 30% and the DC50 (RET (658-1114); [1]) was under 50 nM. For the same molecule, the “293T.165 RET(KD: 658-1114 G810R) 6.0 hours (IP) [nM]” value (RET(KD: 658-1114 G810R)) was “++++ (<50 nM = ++++)”, the Emax (RET(KD: 658-1114 G810R)) was under 30% and the DC50 (RET(KD: 658-1114 G810R); [1]) was under 50 nM.
For `N#Cc1cnn2cc(-c3cnn(C4CCN(C(=O)CN5CCC(c6ccc(NC7CCC(=O)NC7=O)cc6F)CC5)CC4)c3)nc(-c3ccc(N4CCN(Cc5ccccn5)CC4)cc3)c12` (centres unmarked) [Compound 61, 6-[1-[1-[2-[4-[4-[(2,6-dioxo-3-piperidyl)amino]-2-fluoro-phenyl]-1-piperidyl]acetyl]-4-piperidyl]pyrazol-4-yl]-4-[4-[4-(2-pyridylmethyl)piperazin-1-yl]phenyl]pyrazolo[1,5-a]pyrazine-3-carbonitrile], the “293T.144 RET” value (RET (658-1114); HiBiT-Degradation) was “++++ (< 50 nM = ++++)”, the DC50 (RET (658-1114); HiBiT-Degradation) was under 50 nM and the Emax (RET (658-1114); HiBiT-Degradation) was under 30%. For the same molecule, the Emax (RET(KD: 658-1114 G810R)) was under 50%, the DC50 (RET(KD: 658-1114 G810R); [1]) was under 100 nM and the “293T.165 RET(KD: 658-1114 G810R) 6.0 hours (Emax)” value (RET(KD: 658-1114 G810R); HiBiT-Degradation) was “+++ (<50% = +++)”. The “293T.165 RET(KD: 658-1114 G810R) 6.0 hours (IP) [nM]” value (RET(KD: 658-1114 G810R); HiBiT-Degradation) was “++++ (< 50 nM = ++++)” and the DC50 (RET(KD: 658-1114 G810R); HiBiT-Degradation) was under 100 nM.
In the case of `CCC1(C(=O)NC2CCC2)CCN(c2ccc(-c3nc(-c4cnn([C@H]5C[C@H](CN6CCN(c7ccc(N[C@H]8CCC(=O)NC8=O)cc7F)CC6)C5)c4)cn4ncc(C#N)c34)cn2)CC1` [Compound 188, 1-[5-[3-cyano-6-[1-[3-[[4-[4-[[(3S)-2,6-dioxo-3-piperidyl]amino]-2-fluoro-phenyl]piperazin-1-yl]methyl]cyclobutyl]pyrazol-4-yl]pyrazolo[1,5-a]pyrazin-4-yl]-2-pyridyl]-N-cyclobutyl-4-ethyl-piperidine-4-carboxamide], the “293T.144 RET” value (RET (658-1114)) is reported as “++++ (<50 nM = ++++)”, the Emax (RET (658-1114); % remaining protein) is reported as under 30% and the DC50 (RET (658-1114); [1]) is reported as under 50 nM. The “293T.165 RET(KD: 658-1114 G810R) 6.0 hours (IP) [nM]” value (RET(KD: 658-1114 G810R)) was “++++ (<50 nM = ++++)”, the Emax (RET(KD: 658-1114 G810R)) was under 50% and the DC50 (RET(KD: 658-1114 G810R); [1]) was under 50 nM.
For `CCC1(c2ccccn2)CCN(c2ccc(-c3nc(-c4cnn(C5CCN(C(=O)CN6CCC(c7ccc(NC8CCC(=O)NC8=O)cc7F)CC6)CC5)c4)cn4ncc(C#N)c34)cn2)CC1` (centres unmarked) [Compound 110, 6-[1-[1-[2-[4-[4-[(2,6-dioxo-3-piperidyl)amino]-2-fluoro-phenyl]-1-piperidyl]acetyl]-4-piperidyl]pyrazol-4-yl]-4-[6-[4-ethyl-4-(2-pyridyl)-1-piperidyl]-3-pyridyl]pyrazolo[1,5-a]pyrazine-3-carbonitrile], the “293T.144 RET” value (RET (658-1114)) was “++++ (<50 nM = ++++)”, the Emax (RET (658-1114); % remaining protein) was under 30% and the DC50 (RET (658-1114); [1]) was under 50 nM. The “293T.165 RET(KD: 658-1114 G810R) 6.0 hours (IP) [nM]” value (RET(KD: 658-1114 G810R)) was “+++ (<100 nM = +++)”, the Emax (RET(KD: 658-1114 G810R)) was under 30% and the DC50 (RET(KD: 658-1114 G810R); [1]) was under 100 nM.
`N#Cc1cnn2cc(-c3cnn([C@H]4CC[C@@H](N5CCN(c6ccc(NC7CCC(=O)NC7=O)cc6F)CC5)CC4)c3)nc(-c3ccc(N4CC5CC(C4)N5CC4CCC(F)(F)CC4)nc3)c12` (single isomer, unassigned) [Compound 178, 4-(6-(6-((4,4-Difluorocyclohexyl)methyl)-3,6-diazabicyclo[3.1.1]heptan-3-yl)pyridin-3-yl)-6-(1-((1s, 4s)-4-(4-(4-((2,6-dioxopiperidin-3-yl)amino)-2-fluorophenyl)piperazin-1-yl)cyclohexyl)-1H-pyrazol-4-yl)pyrazolo[1,5-a]pyrazine-3-carbonitrile] was tested, and the “293T.144 RET” value (RET (658-1114)) was “++++ (<50 nM = ++++)”, the Emax (RET (658-1114); % remaining protein) was under 30% and the DC50 (RET (658-1114); [1]) was under 50 nM. The “293T.165 RET(KD: 658-1114 G810R) 6.0 hours (IP) [nM]” value (RET(KD: 658-1114 G810R)) was “++++ (<50 nM = ++++)”, the Emax (RET(KD: 658-1114 G810R)) was under 30% and the DC50 (RET(KD: 658-1114 G810R); [1]) was under 50 nM.
